Consider seven molecules from publication PMC5412445, “ZeGlobalTox: An Innovative Approach to Address Organ Drug Toxicity Using Zebrafish” (International Journal of Molecular Sciences, 2017).

“Also recorded” adds a separate entry of the source. Counter-ions that a name gives are not always drawn.

Series [1] has as its system wild type zebrafish embryos. In words: in vivo. Format: in vivo. The settings on record: embryos incubated 3 to 96 hpf; 5 logarithmic concentrations 0.1 µM to 1 mM; 1% DMSO. An excerpt: (§1) Several issues were considered when planning the experimental protocol. The main concern was that drug-induced mortality and/or developmental toxicity (teratogenicity) could mask possible organ-toxicities appearing later in development. […] This preliminary assay allowed for the identification of non-mortal/non-teratogenic concentrations—no observed effect concentration (NOEC)—to use in the following assays. The hypothesis is that NOEC could affect organ physiology (organ toxicity), while uncoupled from putative developmental toxicity side-effects affecting organ development or function. Another consideration was to start drug incubations at 96 hours post fertilization (hpf), when the analysed organs are close to or already developed (Figure 1B). The overall aim is to understand the drug impact on organ physiology and function rather than early embryogenesis. The third consideration was to organize the sequential organ evaluation during the experimental and drug incubation time.
(§2) 1% DMSO, which is the constant solvent concentration in all conditions, was used as the negative control.
(§3) Thus, 20 wild type (wt) zebrafish embryos per condition were incubated with tested compounds from 3 to 96 hpf. The test was performed in 5 logarithmic concentrations per drug (from 0.1 µM to 1 mM). Each larva was analysed for mortality, body deformity, edema, tail detachment, pigmentation, heart activity, heart edema, and motor activity. […] DMSO 1% was used as the negative control in all experiments.

Series [2] has as its system zebrafish larvae. In words: ZeGlobalTox neurotoxicity evaluation (locomotion, light/dark trial). The series is classed as in vivo, zebrafish (Danio rerio). The settings on record: 120 hpf, drug from 96 hpf at NOEC (MPTP 100 µM, paracetamol 2600 µM). The method, then: By 5 dpf, zebrafish larvae perform spontaneous swimming and their visual system is fully developed. Therefore, behavioural experiments were performed from this time point (Figure 4A). Deviations in total distance moved, in response to photo-visual stimulation, were analysed as a direct measurement of neurotoxicity. Thus, drugs increasing or decreasing total distance moved when compared to the DMSO-only group were considered neurotoxic. As the positive neurotoxic control we used MPTP, which has been identified as a neurotoxic drug in humans and zebrafish.
Immediately after heart video acquisition, larvae are washed with E3 medium to remove tricaine methanesulfonate from the solution. Fresh drug solution is added and the larvae are transferred individually in a volume of 150 µL to 96 well plates.
Neurotoxicity is analysed at 120 hpf by locomotion assessment using the EthoVision XT 11.5 software and the DanioVision device from Noldus Information Technologies, Wageningen, The Netherlands. This closed system consists of a camera placed above a chamber with circulating water and a temperature sensor set at 28 °C. The 96-well plates are placed in the chamber, which can then be illuminated with white light using the software. Larvae are then left for 20 min under these conditions and with the lights on to help their acclimation. Finally, larvae locomotion is measured during 50′ under the following light/dark conditions: 10′ darkness-10′ Light-10′ darkness-10′ Light-10′ darkness. Total distance moved (in mm) is acquired under this light/dark trial. Due to circadian rhythms, all locomotion assays were performed from 13:00 pm onwards to ensure steady activity of the zebrafish.
Neurotoxicity is assessed by comparing locomotion differences among the tested compounds (solved in DMSO) and the negative control group (DMSO 1%-only).

A further series relates to humans. The settings on record: known toxicity in humans, ref TOXNET (HSDB), Side effects (EMBL), drugs.com, cited from earlier work; for Neurotoxicity (toxicity in humans): [22],[30],[31],[34],[35]; for Cardiotoxicity (toxicity in humans) / Hepatotoxicity (toxicity in humans): ema.europa; for Cardiotoxicity (toxicity in humans): [19],[20],[21]; for Hepatotoxicity (toxicity in humans): [24],[26],[27],[32],[33].

The subject of the next series is zebrafish larvae liver. In words: ZeGlobalTox hepatotoxicity: Oil Red O staining (steatosis and yolk lipid accumulation). The settings on record: 132 hpf; for Percentage of larvae presenting steatosis: 36 h drug incubation at NOEC (EtOH 2%, MPTP 100 µM), DMSO 24.44%.
Series [3] deals with zebrafish larvae. More on the design: method as in PMID 16408054, PMID 22744888. The settings on record: ref [50],[57]; cited from earlier work.
For a further series, the system named is zebrafish larvae heart. In words: ZeGlobalTox cardiotoxicity evaluation (heart video, ZeCardio software). Format: in vivo, zebrafish (Danio rerio). The settings on record: 100 hpf, 4 h after drug incubation at NOEC (haloperidol 10 µM). The method, then: Four cardiac parameters were evaluated to assess whether a compound was cardiotoxic: heart rate (beats per minute, BPM), QTc prolongation, ejection fraction (EJF), and cardiac arrest. […] 1% DMSO was used as the negative control.
Cardiotoxicity evaluation was performed from 96 hpf, when the zebrafish heartbeat is already stabilised, so the analysis might not be altered by unstable beating. Zebrafish hearts were video-recorded at 4 h after drug incubation (100 hpf) and analysed using the ZeCardio® β software (Figure 3A).
After 4 h of drug incubation (100 hpf), zebrafish larvae were anesthetized by immersion in […] tricaine methanesulfonate (A4050, Sigma-Aldrich, Saint Louis, MO, USA)/E3 solution. […] The 1% DMSO treated embryos were used as negative cardiotoxic controls. Embryos were positioned in an agarose based mold to allow their appropriate orientation under the fluorescence stereo microscope (Olympus MVX10). Individual fluorescent hearts were recorded during 60 s each (Figure 6A). Videos were acquired with a high-speed recording camera (Hamamatsu C11440 ORCA-flash 2.8) and analysed with the ZeCardio® β software to extract different cardiac parameters—heart rate, cardiac arrest, QTc prolongation, and Ejection Fraction (EJF) (Figure 6B).
ZeCardio® β software, developed by ZeClinics and currently in β status, provides a graphical user interface (GUI) that facilitates the semi-automatic analysis of living heart videos. Interactive analysis of the different parameters functions as follows: The user draws a line along the heart axis, from ventricle to atrium, to initiate the calculation. […] All lines can be subjected to modification of their angles and lengths.
Heart beat frequency for each chamber is detected and frequencies are presented in the GUI as a mean. A plot distribution is used for assessing beat stability over time (Figure 6F). In the same fashion, chamber specific cardiac arrest is measured as the longest beating pause (Figure 6H). No beating chambers and/or incorrect bpm can be manually flagged when detected.
For calculation of the QTc interval (linearly corrected QT interval), the Framingham formula (QTc = QT + 0.154 (1 − RR)) was adjusted for zebrafish as QTc = QT + 0.154 (2.66 − RR). RR = 6.6 ms/measured bpm is applied (Figure 6G). Finally, the Ejection Fraction, calculated as the maximal dilatation (the diastolic diameter, DD) versus the maximal contraction (systolic diameter, SD) is measured in % as EF% = (DD − SD)/DD*100 (Figure 6G). Computed values for the described parameters were exported in .csv format (Figure 6H).

A further series can be described thus: in vivo. Format: in vivo. The settings on record: zebrafish, in vivo; mortality; embryos incubated 3 to 96 hpf; 5 logarithmic concentrations 0.1 µM to 1 mM; 1% DMSO.
Description: as §1, §2, §3

Description for zebrafish larvae liver: In order to assess drugs producing steatosis and yolk lipid accumulation, and subsequent to the RFP filtered images being acquired, zebrafish larvae were stained with Oil Red O. Larvae and were sorted into steatosis positive or negative, yolk lipid accumulation, or both (see materials and methods).
For the ZeGlobalTox assay, fertilized Tg(cmlc2:GFP; fabp10:RFP; ela31:EGFP) zebrafish embryos were collected in E3 medium (5 mM NaCl, 0.17 mM KCl, 0.33 mM CaCl2, 0.33 mM, MgSO4) in Petri dishes. At 3, 24, and 48 hpf, dishes were observed and all not fertilized, abnormal, or coagulated eggs were discarded. At 96 hpf, 20 larvae per condition were incubated with the NOECs from the different drugs and allowed to develop until 132 hpf at 28.5 °C.
After 36 h of drug incubation (132 hpf), embryos are fixed in 4% paraformaldehyde (158127-500G, Sigma-Aldrich, Saint Louis, MO, USA) for 2–4 h at room temperature (RT) and then are 3× washed with PBS.
In order to detect the presence of steatosis and yolk lipid retention, zebrafish larvae were stained with Oil Red O (O0625-25G, Sigma-Aldrich, Saint Louis, MO, USA) as described in [77]. Briefly, the skin pigment from fixed larvae is removed by incubating with bleaching solution (for 10 mL: 6 mL H2O, 0.25 mL 20× SSC, 0.5 mL formamide, 3.3 mL H2O2) during 20 min at RT. Then, the larvae are 5× washed with PBS. Bleached embryos are first submerged in 85% Propylene glycol (PG) (134368-1L, Sigma-Aldrich, Saint Louis, MO, USA) for 10 min and then in 100% PG for another 10 min before staining them with Oil Red O 0.5% in 100% PG (overnight, at RT and with gentle rocking). Oil Red O stained embryos are washed in 100% PG for 30 min, 50 min in 85% PG, and 40 min in 85% PG with an equal volume of PBS. Finally, embryos are washed 1× with PBS before adding 80% glycerol (G7757-500ML, Sigma-Aldrich, Saint Louis, MO, USA). Bright field images are taken to detect both steatosis and yolk lipid accumulation. […] Yolk lipid retention is considered positive when a red strong signal is observed in the yolk area (Figure 5F).
DMSO 1% treated larvae were used as the negative control group.

As to `CNCC(O)c1ccc(O)c(O)c1.Cl` (racemic) [(±)-Epinephrine HCL, (±)-epinephrine hydrochloride], the “96 hpf NOEC” value in series [1] is 1000.00 µM. The “Motility (total distance moved) compared to DMSO” value (“Motility … compared to DMSO” below) in the series on zebrafish larvae [2] is “increased motility”. Also, in the series with humans, the “Neurotoxicity (toxicity in humans)” value was “Toxic ^1,2,3”, the “Cardiotoxicity (toxicity in humans)” value is “Toxic ^1,2,3” and the “Hepatotoxicity (toxicity in humans)” value is on record as “Safe”. Besides, in the series with zebrafish larvae liver, the “Percentage of larvae presenting steatosis” value was found to be 80%.

As to `CC(=O)Nc1ccc(O)cc1` [Acetaminophen], the “Motility … compared to DMSO” value with zebrafish larvae [2] was “Decreased motility”. In addition, in the series with zebrafish larvae [3], the “Impact on the heart rate in zebrafish larvae” value is recorded as “no impact”. Further, in the series with humans, the “Neurotoxicity (toxicity in humans)” value is “Toxic ^2,3”, the “Cardiotoxicity (toxicity in humans)” value is reported as “Toxic ^1,2,3” and the “Hepatotoxicity (toxicity in humans)” value was “Toxic ^1,2,3 [24]”. Also, in the series on zebrafish larvae liver (36 h drug incubation at NOEC (paracetamol 2600 µM), DMSO 22.22%), the “Percentage of larvae presenting yolk lipid retention” value worked out at 60%.

Turning to `CC(=O)O[C@@]12CO[C@@H]1C[C@H](O)[C@@]1(C)C(=O)[C@H](O)C3=C(C)[C@@H](OC(=O)[C@H](O)[C@@H](NC(=O)OC(C)(C)C)c4ccccc4)C[C@@](O)([C@@H](OC(=O)c4ccccc4)[C@H]21)C3(C)C` [Docetaxel, docetaxel], the “96 hpf LOEC” value in series [1] is 100.00 µM. In the series with zebrafish larvae heart, the “Heart rate (beats per minute) compared to DMSO-only” value is “decreased the heart rate” and the “Longest cardiac arrest compared to DMSO-only” value is “Longer cardiac arrest”. Besides, the “Motility … compared to DMSO” value in the series on zebrafish larvae [2] is on record as “increased motility”. In the series on humans, the “Neurotoxicity (toxicity in humans)” value is listed as “Toxic ^1,2,3”, the “Cardiotoxicity (toxicity in humans)” value is given as “Toxic ^2,3” and the “Hepatotoxicity (toxicity in humans)” value is reported as “Toxic ^1,2,3”.

Turning to `CN1CC=C(c2ccccc2)CC1` [MPTP, 1-methyl-4-phenyl-1,2,3,6-tetrahydropyridine], the “Motility … compared to DMSO” value in the series on zebrafish larvae [2] was “Decreased motility”. The “Neurotoxicity (toxicity in humans)” value with humans is “Toxic [22, 30, 31]”. Besides, the “Percentage of larvae presenting steatosis” value in the series with zebrafish larvae liver is recorded as 50%.

Consider `CC(C)NCC(O)COc1cccc2[nH]ccc12` (stereo not shown) [Pindolol, pindolol], for which the LC50 (commonly the concentration lethal to half of the exposed cells or organisms) in “in vivo” was greater than 1000 µM. Also, the “96 hpf LOEC” value in series [1] is on record as 1000 µM. Besides, in the series with zebrafish larvae heart, the “Heart rate (beats per minute) compared to DMSO-only” value was “decreased the heart rate”, the “Longest cardiac arrest compared to DMSO-only” value was “Longer cardiac arrest” and the “QTc interval compared to DMSO-only” value is “QTc interval prolongation; also recorded: increased QTc”. The “Motility … compared to DMSO” value in the series on zebrafish larvae [2] is given as “increased motility”. Further, in the series on humans, the “Neurotoxicity (toxicity in humans)” value was “Toxic ^2,3”, the “Cardiotoxicity (toxicity in humans)” value is “Toxic ^1,2,3” and the “Hepatotoxicity (toxicity in humans)” value is “Safe”.

As to `CN1CCN(CCCN2c3ccccc3Sc3ccc(C(F)(F)F)cc32)CC1` [Trifluoperazine HCL, trifluoperazine hydrochloride], the 50% lethal concentration (LC50) in the series “in vivo” came to 31.6 µM. Moreover, in series [1], the “96 hpf LOEC” value came out at 100 µM and the “96 hpf NOEC” value was found to be 10 µM. Also, in the series with zebrafish larvae heart, the “Heart rate (beats per minute) compared to DMSO-only” value is listed as “decreased the heart rate” and the “Longest cardiac arrest compared to DMSO-only” value is on record as “Longer cardiac arrest”. The “Motility … compared to DMSO” value with zebrafish larvae [2] is reported as “Decreased motility”. Further, in the series with humans, the “Neurotoxicity (toxicity in humans)” value is listed as “Toxic ^1,2,3”, the “Cardiotoxicity (toxicity in humans)” value is “Toxic ^1,2,3” and the “Hepatotoxicity (toxicity in humans)” value is “Toxic ^1,2,3”. Further, the “Percentage of larvae presenting steatosis” value with zebrafish larvae liver was found to be 85%.

`CC[C@]1(O)C[C@H]2CN(CCc3c([nH]c4ccccc34)[C@@](C(=O)OC)(c3cc4c(cc3OC)N(C=O)[C@H]3[C@@](O)(C(=O)OC)[C@H](OC(C)=O)[C@]5(CC)C=CCN6CC[C@]43[C@@H]65)C2)C1` [Vincristine, vincristine] had an LC50 in “in vivo” of 31.6 µM. Moreover, the “96 hpf LOEC” value in series [1] came out at 100 µM. In addition, in the series on zebrafish larvae heart, the “Heart rate (beats per minute) compared to DMSO-only” value was “decreased the heart rate” and the “Longest cardiac arrest compared to DMSO-only” value was “Longer cardiac arrest”. In addition, the “Motility … compared to DMSO” value in the series with zebrafish larvae [2] is listed as “increased motility”. Also, in the series with humans, the “Neurotoxicity (toxicity in humans)” value is listed as “Toxic ^1,2,3”, the “Cardiotoxicity (toxicity in humans)” value is recorded as “Toxic ^1,2,3” and the “Hepatotoxicity (toxicity in humans)” value is reported as “Safe”.
